Measured values as given in PubChem BioAssay AID330 (DTP/NCI, 2004).
Several values for one entry are separate records, joined by “and”; a condition that tells them apart may be missing. Identical values can stand only once. Inconclusive results and toxic doses are left out. The calls were made as follows: active = survival T/C of 150% or more; inactive = T/C below 125% in these data.

System: P388 leukemia ip, CD2F1 mice, survival T/C
Experiment: NCI In Vivo Anticancer Drug Screen. Data for tumor model P388 Leukemia (intraperitoneal) in CD2F1 (CDF1) mice
Conditions: endpoint: median survival time, higher = longer survival
Method in brief: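 Mice carrying the transplanted tumor received test compound or vehicle. Survival was recorded in each group, and the value is the treated-group measurement divided by that of the vehicle-treated control group.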

[1] = dose: 100.0 mg/kg/injection, schedule: Q04DX002 (ip), vehicle: saline with Tween-80
[2] = dose: 200.0 mg/kg/injection, schedule: Q04DX002 (ip), vehicle: saline with Tween-80
[3] = dose: 50.0 mg/kg/injection, schedule: Q01DX005 (ip), vehicle: saline with Tween-80
[4] = dose: 100.0 mg/kg/injection, schedule: Q01DX005 (ip), vehicle: saline with Tween-80
[5] = dose: 200.0 mg/kg/injection, schedule: Q01DX005 (ip), vehicle: saline with Tween-80
[6] = dose: 100.0 mg/kg/injection, schedule: Q01DX009 (ip), vehicle: Klucel (hydroxypropylcellulose) (HPC)
[7] = dose: 200.0 mg/kg/injection, schedule: Q01DX009 (ip), vehicle: Klucel (hydroxypropylcellulose) (HPC)
[8] = dose: 400.0 mg/kg/injection, schedule: Q01DX009 (ip), vehicle: Klucel (hydroxypropylcellulose) (HPC)
[9] = dose: 50.0 mg/kg/injection, schedule: Q01DX009 (ip), vehicle: saline
[10] = dose: 100.0 mg/kg/injection, schedule: Q01DX009 (ip), vehicle: saline
[11] = dose: 200.0 mg/kg/injection, schedule: Q01DX009 (ip), vehicle: saline
[12] = dose: 100.0 mg/kg/injection, schedule: Q04DX003 (ip), vehicle: saline with Tween-80
[13] = dose: 200.0 mg/kg/injection, schedule: Q04DX003 (ip), vehicle: saline with Tween-80
[14] = dose: 400.0 mg/kg/injection, schedule: Q04DX003 (ip), vehicle: saline with Tween-80
[15] = dose: 100.0 mg/kg/injection, schedule: Q01DX009 (ip), vehicle: saline with Tween-80

Measured: T/C

COc1cc(C=Nc2cc(Br)cc(Br)c2)ccc1N(CCCl)CCCl
inactive: dose: 0.44 mg/kg/injection, schedule: Q01DX009 (ip), vehicle: saline with Tween-80 120 % of control | dose: 0.66 mg/kg/injection, schedule: Q01DX009 (ip), vehicle: saline with Tween-80 105 % of control | dose: 2.25 mg/kg/injection, schedule: Q04DX003 (ip), vehicle: other 111 % of control | dose: 10.0 mg/kg/injection, schedule: Q01DX009 (ip), vehicle: saline with Tween-80 110 % of control
active: dose: 1.5 mg/kg/injection, schedule: Q01DX009 (ip), vehicle: saline with Tween-80 170 % of control | dose: 2.5 mg/kg/injection, schedule: Q01DX009 (ip), vehicle: saline with Tween-80 165 % of control | dose: 5.0 mg/kg/injection, schedule: Q01DX009 (ip), vehicle: saline with Tween-80 170 % of control | dose: 9.0 mg/kg/injection, schedule: Q04DX003 (ip), vehicle: other 165 % of control | dose: 18.0 mg/kg/injection, schedule: Q04DX003 (ip), vehicle: other 223 % of control

Cc1noc(NC(=O)NC(=O)c2c(F)cccc2F)c1C
inactive: dose: 50.0 mg/kg/injection, schedule: Q04DX002 (ip), vehicle: saline with Tween-80 99 % of control | [1] 99 % of control | [2] 100 % of control

O=c1c(N=Nc2ccccc2Cl)c(O)n(-c2ccc(Cl)cc2)c(=S)n1-c1ccc(Br)cc1
inactive: [1] 99 % of control | [2] 99 % of control | dose: 400.0 mg/kg/injection, schedule: Q04DX002 (ip), vehicle: saline with Tween-80 112 % of control

O=C1c2cc([N+](=O)[O-])cc3cc([N+](=O)[O-])cc(c23)C(=O)N1CCNCCN1C(=O)c2cc([N+](=O)[O-])cc3cc([N+](=O)[O-])cc(c23)C1=O
inactive: [3] 100 % of control and 123 % of control | [4] 107 % of control | [5] 105 % of control and 88 % of control

COc1ccc(/C(=N/N)c2ccccc2)cc1
inactive: dose: 100.0 mg/kg/injection, schedule: Q04DX003 (ip), vehicle: Klucel (hydroxypropylcellulose) (HPC) 100 % of control | dose: 200.0 mg/kg/injection, schedule: Q04DX003 (ip), vehicle: Klucel (hydroxypropylcellulose) (HPC) 114 % of control

COc1ccc2c(C)cc(N/N=C(\c3ccccc3)c3ccccn3)nc2c1
inactive: dose: 1.56 mg/kg/injection, schedule: Q01DX005 (ip), vehicle: saline with Tween-80 107 % of control | dose: 3.12 mg/kg/injection, schedule: Q01DX005 (ip), vehicle: saline with Tween-80 102 % of control | dose: 6.25 mg/kg/injection, schedule: Q01DX005 (ip), vehicle: saline with Tween-80 98 % of control and 94 % of control | [4] 89 % of control | [5] 94 % of control

[Tl][S][Tl]
inactive: dose: 6.25 mg/kg/injection, schedule: Q01DX009 (ip), vehicle: Klucel (hydroxypropylcellulose) (HPC) 102 % of control | dose: 12.5 mg/kg/injection, schedule: Q01DX009 (ip), vehicle: Klucel (hydroxypropylcellulose) (HPC) 100 % of control

c1cc2c(cc1C1SCSCS1)OCO2
inactive: [6] 100 % of control | [7] 120 % of control | [8] 110 % of control

C=CCN1Cc2ccccc2-c2ccccc2C1
inactive: [9] 94 % of control | [10] 106 % of control | [11] 108 % of control

CCCCCCCCCCNC(=O)C[n+]1cccc(C(=O)NCc2ccccc2)c1
inactive: dose: 3.13 mg/kg/injection, schedule: Q01DX009 (ip), vehicle: saline with Tween-80 100 % of control | dose: 6.25 mg/kg/injection, schedule: Q01DX009 (ip), vehicle: saline with Tween-80 95 % of control | dose: 12.5 mg/kg/injection, schedule: Q01DX009 (ip), vehicle: saline with Tween-80 90 % of control

CC1(Oc2ccccc2)OC(=O)c2ccccc2O1 (stereo not given)
inactive: [3] 96 % of control | [4] 104 % of control | [5] 95 % of control

CC1(C)C/C(=C\c2ccc([N+](=O)[O-])cc2)C(=O)c2ccccc21
inactive: dose: 25.0 mg/kg/injection, schedule: Q01DX009 (ip), vehicle: Klucel (hydroxypropylcellulose) (HPC) 99 % of control | dose: 50.0 mg/kg/injection, schedule: Q01DX009 (ip), vehicle: Klucel (hydroxypropylcellulose) (HPC) 100 % of control | [6] 99 % of control | [7] 98 % of control | [8] 88 % of control

CCC(=O)O[C@H]1CC[C@H]2[C@@H]3C[C@H](C)C4=CC(=O)C=C[C@]4(C)[C@H]3C(=O)C[C@]12C
inactive: [12] 90 % of control | [13] 104 % of control | [14] 100 % of control

CSc1ncc(Br)c(C(=O)O)n1
inactive: [12] 100 % of control | [13] 100 % of control | [14] 100 % of control

CC(C)(C)c1cc(C(C)(C)O)c2c(c1)C(C)(C)OS2(C)Cl (stereo not given)
inactive: dose: 50.0 mg/kg/injection, schedule: Q04DX003 (ip), vehicle: saline with Tween-80 104 % of control

CC/C(=N\NS(=O)(=O)c1ccc(C)cc1)c1ccc(C)cc1
inactive: dose: 100.0 mg/kg/injection, schedule: Q04DX003 (ip), vehicle: saline 100 % of control | dose: 200.0 mg/kg/injection, schedule: Q04DX003 (ip), vehicle: saline 98 % of control | dose: 400.0 mg/kg/injection, schedule: Q04DX003 (ip), vehicle: saline 98 % of control

CC(=O)OCCC/C(=C\c1c2ccccc2cc2ccccc12)[N+](=O)[O-]
inactive: dose: 60.0 mg/kg/injection, schedule: Q01DX005 (ip), vehicle: suspension in saline 100 % of control | dose: 120.0 mg/kg/injection, schedule: Q01DX005 (ip), vehicle: suspension in saline 102 % of control | dose: 240.0 mg/kg/injection, schedule: Q01DX005 (ip), vehicle: suspension in saline 97 % of control

OCCOCCN1CCN(C(c2ccccc2)c2ccccc2)CC1
inactive: [9] 103 % of control | [10] 103 % of control

NC(c1ccccc1)S(=O)(=O)O (stereo not given)
inactive: dose: 25.0 mg/kg/injection, schedule: Q01DX009 (ip), vehicle: saline 121 % of control | [9] 121 % of control | dose: 66.7 mg/kg/injection, schedule: Q01DX009 (ip), vehicle: saline with Tween-80 92 % of control | dose: 100.0 mg/kg/injection, schedule: Q01DX001 (ip), vehicle: saline 100 % of control | [15] 88 % of control | [10] 122 % of control | dose: 150.0 mg/kg/injection, schedule: Q01DX009 (ip), vehicle: saline with Tween-80 91 % of control | dose: 200.0 mg/kg/injection, schedule: Q01DX001 (ip), vehicle: saline 100 % of control | [11] 121 % of control | dose: 400.0 mg/kg/injection, schedule: Q01DX001 (ip), vehicle: saline 100 % of control

CCCOC1=NC2=NC(N3CCCC3)=NC3=C(Cl)C=C(Cl)C(=N1)N23
inactive: dose: 25.0 mg/kg/injection, schedule: Q04DX002 (ip), vehicle: Klucel + Tween-80 94 % of control | dose: 50.0 mg/kg/injection, schedule: Q04DX002 (ip), vehicle: Klucel + Tween-80 87 % of control | dose: 100.0 mg/kg/injection, schedule: Q04DX002 (ip), vehicle: Klucel + Tween-80 116 % of control and 86 % of control

CCCCCCCC(=O)NN
inactive: dose: 12.5 mg/kg/injection, schedule: Q01DX009 (ip), vehicle: suspension in saline 96 % of control | dose: 25.0 mg/kg/injection, schedule: Q01DX009 (ip), vehicle: suspension in saline 96 % of control | dose: 50.0 mg/kg/injection, schedule: Q01DX009 (ip), vehicle: suspension in saline 97 % of control | dose: 100.0 mg/kg/injection, schedule: Q01DX009 (ip), vehicle: suspension in saline 96 % of control

O=c1[nH]ccc2sccc12
inactive: dose: 50.0 mg/kg/injection, schedule: Q01DX009 (ip), vehicle: saline with Tween-80 95 % of control | [15] 100 % of control

CN(C)CCCNC(=O)c1n[nH]c(=S)[nH]c1=O
inactive: [3] 101 % of control | [4] 100 % of control | [5] 95 % of control

N=[N+]=NC1C(O)C(CO)OC1n1cnc2c(N)ncnc21 (stereo not given)
inactive: dose: 5.0 mg/kg/injection, schedule: Q03HX016 (ip), vehicle: Klucel (hydroxypropylcellulose) (HPC) 118 % of control | dose: 10.0 mg/kg/injection, schedule: Q03HX016 (ip), vehicle: Klucel (hydroxypropylcellulose) (HPC) 110 % of control | dose: 160.0 mg/kg/injection, schedule: Q03HX016 (ip), vehicle: Klucel (hydroxypropylcellulose) (HPC) 64 % of control
active: dose: 80.0 mg/kg/injection, schedule: Q03HX016 (ip), vehicle: Klucel (hydroxypropylcellulose) (HPC) 153 % of control
